“Also recorded” adds a separate entry of the source.
How the values were obtained:
RKIP [1] = assay: RKIP / p-Erk immunoblotting in mouse schwannoma (mouse NF2) cells; assay type: cell-based
Description: (§1) Cells were harvested and lysed using RIPA buffer [50 mM Tris-Cl, pH 7.5, 150 mM NaCl, 1% NP-40, 0.1% SDS, and 10% sodium deoxycholate] to examine cellular signaling. Protein concentrations in samples were measured using Bio-Rad (Hercules, CA, USA) protein assay kits and BSA standards. The samples (20 μg protein per lane) were separated by sodium dodecyl sulfate-polyacrylamide gel electrophoresis (SDS-PAGE), transferred to Immobilon-P^SQ transfer membranes (Millipore Corp., MA, USA), which were then cultured with 3% skim milk-containing TBS-T buffer (Tris-HCl-based buffer containing 20 mM Tris pH 7.6, 150 mM NaCl, and 0.05% Tween 20) for 1 hour at room temperature and then reacted with primary antibody in TBS-T overnight at 4° C. The membranes were then washed and reacted with secondary horseradish peroxidase (HRP)-conjugated antibodies [goat anti-mouse, goat anti-rabbit, and mouse anti-goat antibodies (Pierce, Thermo Fisher Scientific, Inc., Rockford, IL, USA)] in TBS-T at room temperature for 2 hours. The blots were detected using an HRP-conjugated secondary antibody using ECL kit (Intron, Seoul, Korea).

TGF-β signaling = assay: Smad2/3 phosphorylation after TGF-β1 in HEI-193 cells; assay type: cell-based, human; details: 10 μM, TGF-β1 1 ng/ml (FIGS. 16A, 16B)
Description: as §1

RKIP [2] = assay: Immunoblotting of transfected wild-type and mutant RKIP; assay type: cell-based; details: 10 μM, 24 h (FIG. 8E)
Description: pCMV RKIP-HA was provided by Keum G (David Geffen School of Medicine at University of California, Los Angeles, CA, USA). pCMV RKIP-T101A-HA and pCMV RKIP-T101D-HA were generated by Dr. J. H. Hwang (Pusan National University). pcDNA3 NF2-FLAG, pRK5 TGF beta type 1 receptor-FLAG, and TGF beta type 2 receptor-HA were obtained from Addgene (Cambridge, MA, USA). Transfection was performed using the Jetpei transfection agent (Polyplus New York, USA) for mammalian expression of these vectors.
In other words, cells were seeded at a density of 2×10^5 cells/well in 12-well plates and cultured overnight before transfection. The vector (1.5 μg) was mixed with 1.5 μl of Jetpei reagent dissolved in 150 mM NaCl solution. The mixture was reacted at room temperature for 15 minutes, and then added to the cells. After 3 hours, the serum-free medium 15 was replaced with medium supplemented with 10% FBS.
Cells were harvested and lysed using RIPA buffer [50 mM Tris-Cl, pH 7.5, 150 mM NaCl, 1% NP-40, 0.1% SDS, and 10% sodium deoxycholate] to examine cellular signaling. Protein concentrations in samples were measured using Bio-Rad (Hercules, CA, USA) protein assay kits and BSA standards. […] The blots were detected using an HRP-conjugated secondary antibody using ECL kit (Intron, Seoul, Korea).

[3] = target: T1, interaction between TβR1 and RKIP (Homo sapiens, UniProt P30086+P36897); assay: Immunoprecipitation of TβR1-RKIP interaction in transfected HEI-193 cells; assay type: cell-based; details: FLAG-TβR1- or HA-RKIP-transfected HEI-193 cells, indicated concentrations, 6 h (FIGS. 8A, 9A)
T1 construct: host or cells: HEI-193
T1 sequence (P36897 34-503): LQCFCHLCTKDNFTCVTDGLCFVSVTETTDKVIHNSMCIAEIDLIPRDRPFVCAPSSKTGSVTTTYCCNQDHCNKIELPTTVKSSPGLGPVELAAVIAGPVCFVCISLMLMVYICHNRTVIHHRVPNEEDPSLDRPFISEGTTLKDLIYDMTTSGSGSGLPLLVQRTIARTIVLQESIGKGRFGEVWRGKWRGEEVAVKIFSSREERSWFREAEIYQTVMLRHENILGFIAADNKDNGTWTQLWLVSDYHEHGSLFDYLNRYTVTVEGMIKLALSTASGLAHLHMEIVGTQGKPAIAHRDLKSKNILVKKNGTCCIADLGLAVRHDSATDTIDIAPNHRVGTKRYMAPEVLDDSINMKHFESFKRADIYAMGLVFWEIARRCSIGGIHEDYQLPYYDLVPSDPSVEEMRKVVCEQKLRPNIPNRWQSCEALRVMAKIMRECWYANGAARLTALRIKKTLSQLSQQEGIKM
T1 sequence (P30086 2-187 limits assumed): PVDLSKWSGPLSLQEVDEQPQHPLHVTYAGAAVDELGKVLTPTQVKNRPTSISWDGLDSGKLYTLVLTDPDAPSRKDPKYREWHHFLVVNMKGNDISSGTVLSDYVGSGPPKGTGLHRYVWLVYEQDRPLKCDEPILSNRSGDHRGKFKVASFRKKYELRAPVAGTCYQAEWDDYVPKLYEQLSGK
Description: For protein-protein interaction analysis, glutathione S-transferase (GST)-pull down assay was performed. For GST-pull down, agarose-bead-conjugated GST-RKIP recombinant protein was reacted with FLAG-tagged TβR1-transfected HEK 293 cell lysates in PBS buffer at 4° C. for 1 hour. Immunoprecipitation (IP) assay was performed by reacting with FLAG-tagged TβR1- or HA-tagged RKIP-transfected HEI-193 cell lysates in PBS buffer. Whole lysates were reacted with appropriate primary antibodies at 4° C. for 2 hours and with agarose-bead-conjugated protein A/G (Invitrogen, Carlsbad, CA, USA) for 2 hours. After centrifugation, the precipitates were washed twice with RIPA buffer and subjected to SDS-PAGE and western blotting analysis.

HEI-193 cells = assay: Tumorsphere formation assay, HEI-193 cells; assay type: cell-based, human; details: 10 μM
Description: For tumorsphere formation assay, Hei-193 or mouse schwannoma cells (3×10^6 cells/plate) were cultured in DMEM/F12 medium (supplemented with 2% B27 and 40 ng/ml bFGF) and added with the indicated chemicals on non-coated plates for indicated days.

RKIP [4] = assay: RKIP expression by Western blotting in HEI-193 cells; assay type: cell-based, human; details: compounds 10 μM, 24 h (FIG. 1A) or 72 h (FIG. 2), Western blot
Description: as §1
Because RKIP degradation in NF2 cells is clearly known (Mol Cancer Ther 17, 2271-2284, 2018), after first treating 260 novel synthetic compounds, RKIP expression was measured in HEI-193, a human NF2 cell line.

[5] = tumorspheres, 10th day, immunoblotting (FIGS. 15B, 14E)

Structure (SMILES): CCN(CC)CCOc1ccc(-c2nnn(Cc3ccc(OC)cc3)c2N)cc1 [PRG-N-01, 4-(4-(2-(diethylamino)ethoxy)phenyl)-1-(4-methoxybenzyl)-1H-1,2,3-triazol-5-amino]
- RKIP expression (RKIP [1]; mouse NF2 cell line): increased RKIP expression
- RKIP induction and p-Erk suppression (RKIP [1]; mouse schwannoma cells, 36 h (FIG. 9B)): observed only in actual mouse schwannoma
- duration of Smad 2/3 phosphorylation (canonical TGF-β signaling) (TGF-β signaling): prolonged
- wild-type RKIP expression (RKIP [2]; HEI-193 and mouse schwannoma cells transfected with WT RKIP): induced wild-type RKIP expression
- expression of RKIP mutants (T101A stable form, T101D unstable form) (RKIP [2]; HEI-193 and mouse schwannoma cells transfected with mutants): did not alter the expression
- binding between TβR1 and RKIP (IP) [3]: interrupted the binding in a dose-dependent manner
- tumorsphere size and number (HEI-193 cells; HEI-193 cells, 10th day): reduced the tumorsphere size as well as the number of tumorsphere
- tumorsphere formation (HEI-193 cells; HEI-193 cells, DMEM/F12 medium): obviously inhibited tumorsphere formation
- SOX10 expression in tumorspheres (HEI-193 cells; [5]): obviously increased
- expression of stem cell factors (SOX2, c-Myc, Nanog, Oct4) in tumorspheres (HEI-193 cells; [5]): downregulated to undetectable levels
- RKIP expression (RKIP [4]): induced RKIP expression; also recorded: increased RKIP expression

From patent publication US20240092741A1, “COMPOSITION FOR PREVENTION OR TREATMENT OF NEUROFIBROMATOSIS TYPE 2 SYNDROME” (PRG S&TECH INC., priority 2021, published 2024)
